Measurements taken from US6355799B1, “Substituted benzene compounds, process for their preparation, and herbicidal and defoliant compositions containing them” (ISK Americas Incorporated, priority 1997, dated 2002).

Tests used:
Assay type in all cases: in vivo
[1] = tested on: redroot pigweed (Amaranthus retroflexus, AMARE); test: Pre-emerge test, greenhouse herbicide activity screening; details: rated 14 days after application, 0 = no damage, 100 = complete death
In short: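 Visual ratings on a 0-100 scale (0 no damage, 100 all plants dead) were taken at 14 days after treatment. Rates of 15-1000 g ai/ha in acetone, 187 l/ha, were sprayed onto soil one day after planting (pre-emerge) or onto 2-3 leaf plants with 0.25% v/v surfactant (post-emerge).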

[2] = tested on: barnyardgrass (Echinochloa crus-galli, ECHCG); test: as above; details: rated 14 days after application, 0 = no damage, 100 = complete death
In short: (§1)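 Plants grown in 10 cm pots of sandy loam mix received acetone-dissolved compounds through a moving flat-fan nozzle. Doses ranged from 15 to 1000 g ai/ha. Pre-emerge pots were seeded one day earlier, post-emerge pots 8–21 days earlier. Fourteen days on, each pot was graded 0–100 for damage.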

[3] = tested on: common ragweed (Ambrosia artemisizfolia L., AMBEL); test: as above; details: rated 14 days after application, 0 = no damage, 100 = complete death
In short: as §1

[4] = tested on: green foxtail (Setaria viridis, SETVI); test: as above; details: rated 14 days after application, 0 = no damage, 100 = complete death
In short: as §1

[5] = tested on: ivyleaf morningglory (Ipomoea hederacea, IPOHE); test: as above; details: rated 14 days after application, 0 = no damage, 100 = complete death
In short: as §1

[6] = tested on: johnsongrass (Sorghum halepense, SORHA); test: as above; details: rated 14 days after application, 0 = no damage, 100 = complete death
In short: as §1

[7] = tested on: lambsquarters (Chenopodium album, CHEAL); test: as above; details: rated 14 days after application, 0 = no damage, 100 = complete death
In short: as §1

[8] = tested on: large crabgrass (Digitaria sanguinalis, DIGSA); test: as above; details: rated 14 days after application, 0 = no damage, 100 = complete death
In short: as §1

[9] = tested on: sicklepod (Cassia obtusifolia, CASOB); test: as above; details: rated 14 days after application, 0 = no damage, 100 = complete death
In short: as §1

[10] = tested on: velvetleaf (Abutilon theophrasti, ABUTH); test: as above; details: rated 14 days after application, 0 = no damage, 100 = complete death
In short: as §1

[11] = tested on: field corn (Zea mays L., var. Dekalb 535, CORN); test: Pre-emerge test, crop safety; details: rated 14 days after application, 0 = no damage, 100 = complete death
In short: (§2)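 Applied at 15–1000 g ai/ha from acetone in 187 l/ha spray volume. Post-emergence applications included 0.25% v/v non-ionic surfactant and reached plants sown 8–21 days before. Pre-emergence applications were incorporated by surface watering. Efficacy or crop damage was rated on a 0–100 scale after 14 days.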

[12] = tested on: upland rice (Oryza sp., var. Tebonnet, RICE); test: Pre-emerge test, crop safety; details: rated 14 days after application, 0 = no damage, 100 = complete death
In short: as §2

[13] = tested on: barnyardgrass (Echinochloa crus-galli, ECHCG); test: Post-emerge test, greenhouse herbicide activity screening; details: post-emerge, 14 days after application, rating scale 0-100
In short: (§3)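 Compounds in acetone were track-sprayed at 15–1000 g ai/ha: pre-emergence onto soil sown the previous day, then top-watered to incorporate and later bottom-watered; post-emergence onto 2–3 leaf plants with 0.25% v/v surfactant, bottom-watered only. Ratings on a 0–100 phytotoxicity scale were taken at day 14.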

[14] = tested on: common ragweed (Ambrosia artemisizfolia L., AMBEL); test: as above; details: post-emerge, 14 days after application, rating scale 0-100
In short: as §3

[15] = tested on: green foxtail (Setaria viridis, SETVI); test: as above; details: post-emerge, 14 days after application, rating scale 0-100
In short: as §3

[16] = tested on: ivyleaf morningglory (Ipomoea hederacea, IPOHE); test: as above; details: post-emerge, 14 days after application, rating scale 0-100
In short: as §3

[17] = tested on: johnsongrass (Sorghum halepense, SORHA); test: as above; details: post-emerge, 14 days after application, rating scale 0-100
In short: as §3

[18] = tested on: lambsquarters (Chenopodium album, CHEAL); test: as above; details: post-emerge, 14 days after application, rating scale 0-100
In short: as §3

[19] = tested on: large crabgrass (Digitaria sanguinalis, DIGSA); test: as above; details: post-emerge, 14 days after application, rating scale 0-100
In short: as §3

[20] = tested on: redroot pigweed (Amaranthus retroflexus, AMARE); test: as above; details: post-emerge, 14 days after application, rating scale 0-100
In short: as §3

[21] = tested on: sicklepod (Cassia obtusifolia, CASOB); test: as above; details: post-emerge, 14 days after application, rating scale 0-100
In short: as §3

[22] = tested on: velvetleaf (Abutilon theophrasti, ABUTH); test: as above; details: post-emerge, 14 days after application, rating scale 0-100
In short: as §3

[23] = tested on: field corn (Zea mays L., var. Dekalb 535, CORN); test: Post-emerge test, crop safety; details: post-emerge, 14 days after application, rating scale 0-100
In short: (§4)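 Each test used a mechanized track sprayer delivering 187 l/ha of acetone solution at 15–1000 g ai/ha. Post-emerge foliage at 2–3 leaves was treated with added 0.25% v/v non-ionic surfactant and bottom-watered only. Injury was assessed on day 14, where 100 means total kill.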

[24] = tested on: upland rice (Oryza sp., var. Tebonnet, RICE); test: Post-emerge test, crop safety; details: post-emerge, 14 days after application, rating scale 0-100
In short: as §4

SMILES: COc1c(Cl)cc(F)c(-n2c(=O)cc(C(F)(F)F)n(C)c2=O)c1NC(=O)c1ccc(C#N)cc1 [2-67]
- Pre-emerge Herbicidal Activity, phytotoxicity rating (0-100), AMARE ([1]; 63 g ai/ha): 100
- Pre-emerge Herbicidal Activity, phytotoxicity rating (0-100), AMARE ([1]; 250 g ai/ha): 100
- Pre-emerge Herbicidal Activity, phytotoxicity rating (0-100), ECHCG ([2]; 63 g ai/ha): 50
- Pre-emerge Herbicidal Activity, phytotoxicity rating (0-100), ECHCG ([2]; 250 g ai/ha): 95
- Pre-emerge Herbicidal Activity, phytotoxicity rating (0-100), AMBEL ([3]; 63 g ai/ha): 100
- Pre-emerge Herbicidal Activity, phytotoxicity rating (0-100), AMBEL ([3]; 250 g ai/ha): 100
- Pre-emerge Herbicidal Activity, phytotoxicity rating (0-100), SETVI ([4]; 63 g ai/ha): 100
- Pre-emerge Herbicidal Activity, phytotoxicity rating (0-100), SETVI ([4]; 250 g ai/ha): 100
- Pre-emerge Herbicidal Activity, phytotoxicity rating (0-100), IPOHE ([5]; 63 g ai/ha): 100
- Pre-emerge Herbicidal Activity, phytotoxicity rating (0-100), IPOHE ([5]; 250 g ai/ha): 100
- Pre-emerge Herbicidal Activity, phytotoxicity rating (0-100), SORHA ([6]; 63 g ai/ha): 80
- Pre-emerge Herbicidal Activity, phytotoxicity rating (0-100), SORHA ([6]; 250 g ai/ha): 100
- Pre-emerge Herbicidal Activity, phytotoxicity rating (0-100), CHEAL ([7]; 63 g ai/ha): 100
- Pre-emerge Herbicidal Activity, phytotoxicity rating (0-100), CHEAL ([7]; 250 g ai/ha): 100
- Pre-emerge Herbicidal Activity, phytotoxicity rating (0-100), DIGSA ([8]; 63 g ai/ha): 100
- Pre-emerge Herbicidal Activity, phytotoxicity rating (0-100), DIGSA ([8]; 250 g ai/ha): 100
- Pre-emerge Herbicidal Activity, phytotoxicity rating (0-100), CASOB ([9]; 63 g ai/ha): 100
- Pre-emerge Herbicidal Activity, phytotoxicity rating (0-100), CASOB ([9]; 250 g ai/ha): 100
- Pre-emerge Herbicidal Activity, phytotoxicity rating (0-100), ABUTH ([10]; 63 g ai/ha): 100
- Pre-emerge Herbicidal Activity, phytotoxicity rating (0-100), ABUTH ([10]; 250 g ai/ha): 100
- Pre-emerge phytotoxicity rating (0-100), crop damage, CORN ([11]; 63 g ai/ha): 90
- Pre-emerge phytotoxicity rating (0-100), crop damage, CORN ([11]; 250 g ai/ha): 99
- Pre-emerge phytotoxicity rating (0-100), crop damage, RICE ([12]; 63 g ai/ha): 90
- Pre-emerge phytotoxicity rating (0-100), crop damage, RICE ([12]; 250 g ai/ha): 90
- phytotoxicity rating ECHCG ([13]; 63 g ai/ha): 0
- phytotoxicity rating ECHCG ([13]; 250 g ai/ha): 40
- phytotoxicity rating AMBEL ([14]; 63 g ai/ha): 100
- phytotoxicity rating AMBEL ([14]; 250 g ai/ha): 100
- phytotoxicity rating SETVI ([15]; 63 g ai/ha): 20
- phytotoxicity rating SETVI ([15]; 250 g ai/ha): 30
- phytotoxicity rating IPOHE ([16]; 63 g ai/ha): 99
- phytotoxicity rating IPOHE ([16]; 250 g ai/ha): 100
- phytotoxicity rating SORHA ([17]; 63 g ai/ha): 0
- phytotoxicity rating SORHA ([17]; 250 g ai/ha): 80
- phytotoxicity rating CHEAL ([18]; 63 g ai/ha): 100
- phytotoxicity rating CHEAL ([18]; 250 g ai/ha): 100
- phytotoxicity rating DIGSA ([19]; 63 g ai/ha): 0
- phytotoxicity rating DIGSA ([19]; 250 g ai/ha): 40
- phytotoxicity rating AMARE ([20]; 63 g ai/ha): 100
- phytotoxicity rating AMARE ([20]; 250 g ai/ha): 100
- phytotoxicity rating CASOB ([21]; 63 g ai/ha): 100
- phytotoxicity rating CASOB ([21]; 250 g ai/ha): 100
- phytotoxicity rating ABUTH ([22]; 63 g ai/ha): 100
- phytotoxicity rating ABUTH ([22]; 250 g ai/ha): 100
- phytotoxicity rating CORN ([23]; 63 g ai/ha): 20
- phytotoxicity rating CORN ([23]; 250 g ai/ha): 95
- phytotoxicity rating RICE ([24]; 63 g ai/ha): 70
- phytotoxicity rating RICE ([24]; 250 g ai/ha): 80
